The test system of data set [1] is normal primary human neonatal fibroblast cells. The data set can be described thus: Sulforhodamine B (SRB) cytotoxicity assay, neonatal fibroblasts. Conditions: 500 μM. Format: cell-based. As for the experimental part: (§1) Our strategy to identify novel ODC inhibitors was to first screen new analogs for ODC inhibition at 50 μM using our in vitro enzyme activity assay and purified human ODC (Table 1). Those showing significant inhibition were then titrated to provide an ODC IC50 followed by cell-based screening against both cancer (Kelly neuroblastoma) and noncancerous (neonatal fibroblasts) cell lines. For the cancer cell line, higher cytotoxicity was desired and for the noncancerous cell line counter screen, lower cytotoxicity was desired.
(§2) Normal primary human neonatal fibroblast cells (ATCC) were maintained in DMEM medium (Gibco) supplemented with 10% heat-inactivated fetal bovine serum (Hyclone), penicillin (100 IU/mL), and streptomycin (100 μg/mL), nonessential amino acids (0.1 mM) and sodium pyruvate (1 mM). Kelly neuroblastoma cells (Sigma-Aldrich) were maintained in RPMI medium (Corning) supplemented with 10% heat-inactivated fetal bovine serum (Hyclone), penicillin (100 IU/mL), and streptomycin (100 μg/mL). Cell lines were routinely monitored for mycoplasma contamination using the MycoAlert PLUS Mycoplasma Detection Kit (Lonza).
(§3) The colorimetric sulforhodamine B (SRB) assay was used to measure cytotoxicity following treatment with ODC inhibitors. Briefly, Kelly neuroblastoma cells and normal primary human neonatal fibroblast cells were plated in transparent flat 96-well plates and allowed to attach overnight. Cells were treated with control or 500 μM ODC inhibitor for 72 h. Cells were then fixed with 10% TCA at 4 °C for 1 h, washed with deionized water, and dried at room temperature. Cells were stained with 100 μL of 0.4% SRB in 1% acetic acid for 20 min at room temperature, rinsed five times with 1% acetic acid and allowed to dry at room temperature. One hundred μL of 10 mM Tris–HCl pH 7.0 was added to each well, shaken for 10 min at room temperature and absorbance was read at 540 nm. Absorbance values were normalized relative to control readings and converted to percentage by multiplying by one hundred. The percent cytotoxicity was then determined by subtracting the relative percentage of the ODC inhibitor treated readings from the control which is 100%.
On the technique in general: Sulforhodamine B stains cellular protein and so reports cell mass.

Assay in data set [2]: as above
It counts as cell-based, human. Conditions: human, normal primary neonatal fibroblast cells; 72 hrs @500 µM; supplement csv. As for the experimental part:
as §1, §2, §3

The conditions of data set [3]: no reference printed for this property; cited from earlier work.
For data set [4] the following is noted: cited from earlier work.
Details of data set [5]: method as in PMID 11004451. The conditions noted are these: due to an amino acid transporter; cited from earlier work.
Data set [6] addresses T1, purified human ODC enzyme (Homo sapiens, UniProt P11926).
T1 construct: His6 (C); made in house; host or cells: E. coli BL21(DE3)
T1 sequence (P11926 1-461): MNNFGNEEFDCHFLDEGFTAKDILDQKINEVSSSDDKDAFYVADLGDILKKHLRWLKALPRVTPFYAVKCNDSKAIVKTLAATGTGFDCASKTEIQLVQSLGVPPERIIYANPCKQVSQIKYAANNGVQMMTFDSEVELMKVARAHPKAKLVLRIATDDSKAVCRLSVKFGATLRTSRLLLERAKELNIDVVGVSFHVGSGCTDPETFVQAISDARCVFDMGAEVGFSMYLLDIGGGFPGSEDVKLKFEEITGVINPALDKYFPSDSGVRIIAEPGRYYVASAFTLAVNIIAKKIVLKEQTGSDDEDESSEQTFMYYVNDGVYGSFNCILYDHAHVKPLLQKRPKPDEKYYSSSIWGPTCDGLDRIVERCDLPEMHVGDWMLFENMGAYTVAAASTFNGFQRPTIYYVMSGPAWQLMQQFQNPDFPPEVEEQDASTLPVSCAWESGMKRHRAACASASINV
In words: In vitro ODC enzyme activity assay. Format: biochemical. Conditions: read-out: ODC biochemical inhibition % (50 μM). As for the experimental part:
as §1
In vitro ODC activity was measured using 100 ng of purified human ODC enzyme, as we previously described.[53],[99] ODC was incubated with increasing concentrations of inhibitors for 30 min at room temperature in a buffer containing 25 mM Tris and 0.1 mM EDTA. […] In the cell-based ODC activity assay, Kelly neuroblastoma cells that were treated with 500 μM inhibitors were harvested in a buffer containing 25 mM Tris HCl, 0.1 mM EDTA, and 2.5 mM DTT. […] For both the in vitro and cell-based assay, the microcentrifuge tubes were then placed into scintillation vials containing a piece of filter paper saturated with 200 μL of 0.1 M NaOH to capture the release of radiolabeled carbon dioxide. The samples were incubated in a 37 °C incubator while shaking for 30 min (in vitro) or 2 h (cell-based). The enzymatic reaction was stopped by adding 250 μL of 5 M sulfuric acid to each sample and incubating at 37 °C while shaking for 30 min. The microcentrifuge tubes were removed from the scintillation vials, and 5 mL of scintillation fluid was added. Disintegrations per minute (DPM) of each sample was measured using a TriCarb liquid scintillation counter (PerkinElmer). The specific ODC activity is expressed as nmol CO2/min/mg protein (in vitro) or pmol CO2/min/mg protein (cell-based). The individual ODC inhibitor IC50 values were determined using Graphpad Prism 8.

Data set [7] deals with polyamine levels in Kelly neuroblastoma cells. In words: Polyamine analysis (HPLC of dansylated polyamines). Format: cell-based. The conditions noted are these: 500 μM inhibitor. On the procedure:
Polyamines from Kelly neuroblastoma cells treated with 500 μM inhibitors were isolated, dansylated, and analyzed by HPLC. Briefly, polyamines were extracted and protonated in perchloric acid/sodium chloride buffer. To 100 μL of sample, 4.5 nmol of 1,7 diaminoheptane internal standard and 200 μL of 1 M sodium carbonate was added prior to dansylation with 400 μL of 5 mg/mL dansyl chloride (Sigma-Aldrich) for 60 min at 65 °C. One hundred μL of 1 M proline was then added to each reaction and incubated for 20 min at 65 °C. Polyamines were extracted from the mixture using methylene chloride. The methylene chloride was allowed to evaporate, the samples were resuspended in methanol and run through a C18 cleanup column. Samples were then analyzed using a Thermo Scientific/Dionex Ultimate 3000 HPLC, using a Syncronis C18 column (250 × 4.6 mm, […] pore size), and containing a fluorescence detector. The dansylated polyamine peaks were visualized by excitation at 340 nm and emission at 515 nm. The buffers used for elution of the polyamines were as follows: buffer A: 10 mM sodium heptanesulfonate/10% acetontrile at pH 3.4. Buffer B: 100% acetonitrile. The flow rate was 0.7 mL per minute. The column was equilibrated with 55% buffer B/45% buffer A prior to injection of the sample. Upon injection of the sample, elution of polyamines occurs in an isocratic solution of 55% buffer B/45% buffer A for 28 min. The solution was then slowly ramped to 95% buffer B/5% buffer A for 20 min. This gradient was held for 27 min to elute the spermine peak. The solution was then quickly dropped back to 55% buffer B/45% buffer A to re-equilibrate the column prior to the next sample being injected. Using the relative molar response derived from N-dansylated PA and 1,7 diaminoheptane standards, the amount of N-dansylated polyamines was calculated and normalized to total sample protein.

Data set [8] concerns Kelly neuroblastoma cells. In words: Sulforhodamine B (SRB) cytotoxicity assay, Kelly neuroblastoma cells. It counts as cell-based. On the procedure:
as §1, §2, §3

Each structure is given as a SMILES string.

What is called inhibition is the change of the read-out against control, counted positive when it falls. As to `NCCC[C@](N)(C(=O)O)C(F)F` [DFMO, α-difluoromethylornithine], the “cytotoxic activity against neonatal fibroblasts (in words)” value in data set [1] (72 h) is listed as “greater cytotoxic activity”. In addition, the “Cell cytotoxicity (72 hr @ 500 μM) Neonatal Fibroblasts” value in data set [1] (72 hr, percent cytotoxicity) worked out at 41±12%. Also, in data set [2], the cytotoxicity at 72 h, 500 µM turned out to be 41%. Further, the “water solubility (in words)” value in data set [3] was “water-soluble”. Moreover, the “clearance (in words)” value in data set [4] was “rapid clearance”. Also, the “permeability (in words)” value in data set [5] is “permeable”. Also, the inhibition at 50 µM in data set [6] was 47%. The “Kelly Treated Neuroblastoma Cells (Total Spm)” value in data set [7] (Control = 2.57+0.47) is reported as 3.52+0.35. Further, in data set [7] (Control = 8.52+1.63), the “Kelly Treated Neuroblastoma Cells (Spd)” value was 1.99+1.06. For the same compound, the “Kelly Treated Neuroblastoma Cells (Total Put)” value in data set [7] (Control = 9.71+1.31) is reported as 0. Besides, in data set [7] (Control = 20.81 +2.67), the “Kelly Treated Neuroblastoma Cells (Total PA)” value was 5.51+1.06. Besides, the “putrescine level (in words)” value in data set [7] (Kelly neuroblastoma cells, Figure 6B) is on record as “undetected”. The “spermidine and spermine levels (in words)” value in data set [7] (Kelly neuroblastoma cells, relative to APA) is on record as “greatest reductions”. Moreover, in data set [8] (72 h, 500 μM), the “activity against Kelly neuroblastoma cells (in words)” value was “relatively moderate cytotoxic activity”. The “Cell cytotoxicity (72 hr @ 500 μM) Kelly Neuroblastoma” value in data set [8] (72 hr, 500 μM, percent cytotoxicity) is 26±9%. Moreover, in data set [8] (Kelly, 72 hrs @500 µM, supplement csv, read-out: Kelly Neuroblasoma Cells (72 hrs @500 µM) %cytotoxicity), the cytotoxicity at 500 µM came to 26%.

The values are drawn from PMC11912471 (Journal of Medicinal Chemistry, 2025).
